Converted amounts (≈) assume the structure as drawn.
Conditions: buffer; pH 7.4; 200.0 µM

SMILES | solubility kinetic [µg/mL]
COc1ccccc1NC(=O)/C(=C/c1ccncc1)NC(=O)c1ccccc1 | 22.2 (≈ 59.5 µM)
Cc1ccc(NC(=O)Nc2cccc(C)n2)c(C)c1 | < 0.2
O=C(Nc1cccc2ncccc12)c1ccccc1F | 39.7 (≈ 149 µM)
CCOC(=O)c1sc(/N=C/c2c(O)ccc3ccccc23)cc1C | 9.8 (≈ 28.9 µM)
COc1ccc(C(=O)Nc2ccc(-c3n[nH]c(=S)o3)cc2)cc1 | > 49.1
NCCCN1CCN(c2ccccc2)CC1 | 26.3 (≈ 120 µM)
COc1ccccc1CNCc1cc(=O)oc2c(C)c(C)ccc12 | 3.6 (≈ 11.1 µM)
O=C(NC(N1CCOCC1)C(Cl)(Cl)Cl)c1ccc(F)cc1 (stereo not given) | 41.1 (≈ 116 µM)
CCc1ccccc1NC(=O)CN(C)C(=O)COC(=O)c1cccnc1Cl | > 58.5
COc1ccc(/C(N)=N/OC(=O)CCC2CCCC2)cc1 | 4.2 (≈ 14.5 µM)
O=C1NC(=O)C(=Cc2ccsc2)C(=O)N1 | > 33.3
Cc1ccc(NC(=O)C/C(N)=N/OC(=O)c2ccccc2)cc1 | 2.2 (≈ 7.07 µM)
COc1ccc(C(=O)NC(C)CCc2ccccc2)c(OC)c1 (stereo not given) | 41.5 (≈ 132 µM)
COc1cccc(C(=O)NCCS(=O)(=O)N2CCCC2)c1 | > 46.9
CC(C)=C(NC(=O)c1ccccc1)C(=O)Nc1cccc(C(=O)O)c1 | > 50.8
Cc1cc(NC(=O)c2cc(-c3cccc(OCC(C)C)c3)nc3ccccc23)no1 | < 0.3
Cc1ccc(NC(=O)Cn2c([N+](=O)[O-])cnc2C)cc1Cl | 1.6 (≈ 5.18 µM)
CC1CN(CCc2ccccc2)c2nc3c(c(=O)n(C)c(=O)n3C)n2C1 (stereo not given) | 41.7 (≈ 118 µM)
NS(=O)(=O)c1cccc(NC(=O)CSc2nnc(C3CC3)n2-c2ccccc2)c1 | > 64.4
CC(=O)C1=C(O)C(=O)N(c2ccccn2)C1c1ccc(Cl)cc1 (stereo not given) | 40.9 (≈ 124 µM)

SMILES | solubility kinetic [µg/mL]
Nc1cc(=O)[nH]c(SCC(=O)NCCC2=CCCCC2)n1 | > 46.3
CCn1c(SCC(N)=O)nnc1-c1ccc2c(c1)OCO2 | > 46
Fc1ccc(-c2cnc3n2CCCCC3)cc1 | > 34.5
C=CCN(C(=O)CN1CCCCC1)c1nc(-c2ccccc2)cs1 | 2.4 (≈ 7.03 µM)
CC(C)(C)CC(=O)NCCCN1CCOCC1 | > 36.4
COC(=O)CSc1nnc(CCc2ccccc2)n1C | > 43.7
CC(C)n1c(CN(C)Cc2ccccc2)nc2c1c(=O)n(C)c(=O)n2C | 23.8 (≈ 67 µM)
Cc1cccc(NC(=O)NC2CC3CCC(C2)N3Cc2ccco2)c1 (stereo not given) | 11.1 (≈ 32.7 µM)
O=C(NCCNC(=O)c1ccco1)c1ccco1 | 30.5 (≈ 123 µM)
Cc1ccc(C2=NN(CC(=O)NCCC(C)C)C(=O)CC2)cc1 | > 47.3
Cc1ccc(-c2cnc(-c3ccccc3C(=O)O)o2)cc1 | 35.2 (≈ 126 µM)
Nc1ccc(-c2nc3ccc(N)cc3s2)cc1 | 17.7 (≈ 73.3 µM)
C=CCNC(=O)/C(C#N)=C/c1ccc2c(c1)OCCO2 | 7 (≈ 25.9 µM)
Nc1cc(Nc2ccccc2)c2nonc2c1[N+](=O)[O-] | 0.5 (≈ 1.84 µM)
O=C1CSC(c2ccccc2)N1Cc1ccccc1 (stereo not given) | 31.3 (≈ 116 µM)
O=C(Nc1cccc(F)c1)Nc1cnccn1 | 6.1 (≈ 26.3 µM)
CC(=O)N1CCN(c2ccnc3cc(Cl)ccc23)CC1 | 34.3 (≈ 118 µM)
Cc1cccc(C)c1NC(=O)NC1CCc2ccccc21 (stereo not given) | 1 (≈ 3.57 µM)
CCC1CN(C(=O)NCc2ccc(C)cc2)c2cc(Cl)ccc2O1 (stereo not given) | < 0.4
NNC(=O)c1oc2ccccc2c1-n1cccc1 | > 36.2

SMILES | solubility kinetic [µg/mL]
O=[N+]([O-])c1cccc(S(=O)(=O)NCc2ccncc2)c1 | > 44
Cc1ccc2cc(N)ccc2n1 | > 23.7
CC(NC(=O)COC(=O)CN1C(=O)c2ccccc2C1=O)c1ccccc1 (stereo not given) | > 55
Cc1ccc(SCC(=O)N2CCC(C(N)=O)CC2)cc1 | > 43.9
O=C(Nc1ccc(Cl)c(NC(=O)c2cccs2)c1)c1ccco1 | 37.4 (≈ 108 µM)
CCOCCOc1cccc(C(=O)NC(C)c2ccc3ccccc3c2)c1 (stereo not given) | 1.6 (≈ 4.4 µM)
CS(=O)(=O)Nc1cccc(-c2cnc3ccccc3n2)c1 | > 44.9
Cc1ccc(F)c(N=Cc2c(O)c3ccccc3oc2=O)c1 | 1.8 (≈ 6.05 µM)
COc1cc(C(=O)OCC2CC(c3ccccc3)=NO2)cc(OC)c1OC (stereo not given) | 38.2 (≈ 103 µM)
N#Cc1ccccc1COC(=O)c1ccc2c(c1)OCCO2 | 10.9 (≈ 36.9 µM)
Cc1cccc(C)c1NC(=O)CN(C)C(=O)C1CCCCC1 | > 45.4
CN1CCOCCOCCOCCN(C)C1=S | > 39.4
NC(=NC(=O)c1cccc(C(F)(F)F)c1)c1ccc(C(F)(F)F)cn1 | 0.9 (≈ 2.49 µM)
CCCC(=O)C1=C(N(C)c2ccccc2)CC(C)(C)CC1=O | 32.5 (≈ 109 µM)
COc1cc(OC)cc(C(=O)NC(C(=O)NCCc2ccccn2)C(C)C)c1 (stereo not given) | > 57.8
COc1ccc(NCC(=O)Nc2cccc(C(F)(F)F)c2)cc1S(=O)(=O)N1CCOCC1 | 3.4 (≈ 7.18 µM)
CC1CN(C(=O)C2CC(=O)N(c3ccc(Cl)cc3)C2)CC(C)O1 (stereo not given) | > 50.5
CCc1nnc(NC(=O)C2CC(=O)N(Cc3ccccc3)C2)s1 (stereo not given) | > 49.6
COc1ccc(Cl)cc1N1C(=O)c2cccnc2C1=O | > 43.3
C1=CCN(Cc2ccccc2)C1 | 4.1 (≈ 25.7 µM)

From PubChem BioAssay AID1996
